Experimental data taken from ChEMBL document CHEMBL1201862, “PubChem BioAssay data set” (2004).
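Method: 48-hour compound exposure of cells in 96-well plates, five concentrations, linear interpolation of endpoints. GI50 marks 50% less growth.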 The source made the active and inactive calls. Cut-off read from the data, not from the text of the source: active = GI50 up to about 1.1 µM and inactive = higher.

Experiments:
Assay in all cases: growth of human tumour cells (NCI), 48 h
HOP-62 = test system: HOP-62
SN12C = test system: SN12C
OVCAR-5 = test system: OVCAR-5
MDA-N = test system: MDA-N
Hs-578T = test system: Hs-578T
OVCAR-3 = test system: OVCAR-3
SW-620 = test system: SW-620
HL-60 = test system: HL-60
MDA-MB-435 = test system: MDA-MB-435
K562 = test system: K562
SK-MEL-5 = test system: SK-MEL-5
RXF 393 = test system: RXF 393
HCC 2998 = test system: HCC 2998
SF-539 = test system: SF-539
SNB-19 = test system: SNB-19
NCI-H226 = test system: NCI-H226
A498 = test system: A498
MDA-MB-231 = test system: MDA-MB-231
SK-OV-3 = test system: SK-OV-3

SMILES	GI50 (HOP-62)	GI50 (SN12C)	GI50 (OVCAR-5)	GI50 (MDA-N)	GI50 (Hs-578T)	GI50 (OVCAR-3)	GI50 (SW-620)	GI50 (HL-60)	GI50 (MDA-MB-435)	GI50 (K562)	GI50 (SK-MEL-5)	GI50 (RXF 393)	GI50 (HCC 2998)	GI50 (SF-539)	GI50 (SNB-19)	GI50 (NCI-H226)	GI50 (A498)	GI50 (MDA-MB-231)	GI50 (SK-OV-3)
CCOC1=C(c2ccccc2)N2CCCCC2O1 (stereo unspecified)	4.6 µM (inactive)	8.85 µM (inactive)	3.94 µM (inactive)	4.03 µM (inactive)	6.12 µM (inactive)	3.79 µM (inactive)	4.21 µM (inactive)	1.5 µM (inactive)	3.25 µM (inactive)	2.03 µM (inactive)	1.7 µM (inactive)	7.89 µM (inactive)	3.12 µM (inactive)	9.29 µM (inactive)	3.76 µM (inactive)	3.42 µM (inactive)	8.73 µM (inactive)	3.61 µM (inactive)	
COc1c(C(=O)O)cccc1-c1cccc(C(=O)NCCN(CCNC(=O)c2cccc(-c3cccc(C(=O)O)c3OC)c2OC)CCNC(=O)c2cccc(-c3cccc(C(=O)O)c3OC)c2OC)c1OC	58.9 µM (inactive)	29.4 µM (inactive)	28.6 µM (inactive)	5.58 µM (inactive)	28 µM (inactive)	18.5 µM (inactive)	29.6 µM (inactive)	18.2 µM (inactive)	11.4 µM (inactive)	24.3 µM (inactive)	4.84 µM (inactive)	28.6 µM (inactive)	31.7 µM (inactive)	37.2 µM (inactive)	52 µM (inactive)	32.7 µM (inactive)	31.8 µM (inactive)	37.6 µM (inactive)	33 µM (inactive)
COc1ccc2cc(CNCCCCCCNC(=O)Nc3cccc4ccccc34)ccc2c1	> 100 µM (inactive)	> 100 µM (inactive)	> 100 µM (inactive)	> 100 µM (inactive)	> 100 µM (inactive)	> 100 µM (inactive)	> 100 µM (inactive)	> 100 µM (inactive)	> 100 µM (inactive)	> 100 µM (inactive)	> 100 µM (inactive)	> 100 µM (inactive)	> 100 µM (inactive)	> 100 µM (inactive)	> 100 µM (inactive)	> 100 µM (inactive)	> 100 µM (inactive)	> 100 µM (inactive)	> 100 µM (inactive)
O=C(/C(=N\Nc1ccc([N+](=O)[O-])cc1[N+](=O)[O-])NC12CC3CC(CC(C3)C1)C2)C(Br)C(=O)c1ccccc1 (stereo unspecified)	2.74 µM (inactive)	3.12 µM (inactive)	5.4 µM (inactive)	4.69 µM (inactive)	4.67 µM (inactive)	2.54 µM (inactive)	0.766 µM (active)	2.94 µM (inactive)	3.52 µM (inactive)	2.8 µM (inactive)	1.08 µM (active)	2.78 µM (inactive)	3.98 µM (inactive)	3.31 µM (inactive)	3.97 µM (inactive)	2.52 µM (inactive)	2.71 µM (inactive)	2.27 µM (inactive)	2.75 µM (inactive)
COCCOC(C)C(=O)C(O)S(=O)(=O)O (stereo unspecified)	> 100 µM (inactive)	> 100 µM (inactive)	> 100 µM (inactive)	> 100 µM (inactive)	> 100 µM (inactive)	> 100 µM (inactive)	> 100 µM (inactive)	> 100 µM (inactive)	> 100 µM (inactive)	> 100 µM (inactive)	> 100 µM (inactive)	> 100 µM (inactive)	> 100 µM (inactive)	> 100 µM (inactive)	> 100 µM (inactive)	> 100 µM (inactive)	> 100 µM (inactive)	> 100 µM (inactive)	> 100 µM (inactive)
Cc1c2oc3c(C)cc(F)c(C(=O)NC4C(=O)NC(C(C)C)C(=O)N5CCCC5C(=O)N(C)CC(=O)N(C)C(C(C)C)C(=O)OC4C)c3nc-2c(C(=O)NC2C(=O)NC(C(C)C)C(=O)N3CCCC3C(=O)N(C)CC(=O)N(C)C(C(C)C)C(=O)OC2C)c(N)c1=O (stereo unspecified)	0.107 µM (active)	0.0303 µM (active)	0.214 µM (active)	0.0024 µM (active)	0.298 µM (active)	0.0336 µM (active)	0.00114 µM (active)	0.00131 µM (active)	0.00757 µM (active)	< 0.001 µM (active)	0.0142 µM (active)	0.106 µM (active)	0.109 µM (active)	0.0681 µM (active)	0.00771 µM (active)	0.0234 µM (active)	0.161 µM (active)	0.647 µM (active)	0.16 µM (active)
N#Cc1c(-c2ccc(Cl)cc2)c2c(n(C3OC(CO)C(O)C(O)C3O)c1=S)CCCC2 (stereo unspecified)	85.3 µM (inactive)	68.5 µM (inactive)	> 100 µM (inactive)	44.2 µM (inactive)	> 100 µM (inactive)	69.8 µM (inactive)	74 µM (inactive)	24.7 µM (inactive)	54.8 µM (inactive)	37.8 µM (inactive)	18.4 µM (inactive)	> 10 µM (inactive)	> 100 µM (inactive)	> 100 µM (inactive)	39.1 µM (inactive)	> 100 µM (inactive)	49.3 µM (inactive)	53.6 µM (inactive)	
